Assays:
[1] = molecular target: Cholinesterase (Homo sapiens, UniProt P06276); assay: Inhibitory concentration against human serum butyrylcholinesterase activity
[2] = molecular target: Acetylcholinesterase (Homo sapiens, UniProt P22303); assay: Inhibitory concentration against human serum acetylcholinesterase activity
Chain of Acetylcholinesterase (P22303 whole entry): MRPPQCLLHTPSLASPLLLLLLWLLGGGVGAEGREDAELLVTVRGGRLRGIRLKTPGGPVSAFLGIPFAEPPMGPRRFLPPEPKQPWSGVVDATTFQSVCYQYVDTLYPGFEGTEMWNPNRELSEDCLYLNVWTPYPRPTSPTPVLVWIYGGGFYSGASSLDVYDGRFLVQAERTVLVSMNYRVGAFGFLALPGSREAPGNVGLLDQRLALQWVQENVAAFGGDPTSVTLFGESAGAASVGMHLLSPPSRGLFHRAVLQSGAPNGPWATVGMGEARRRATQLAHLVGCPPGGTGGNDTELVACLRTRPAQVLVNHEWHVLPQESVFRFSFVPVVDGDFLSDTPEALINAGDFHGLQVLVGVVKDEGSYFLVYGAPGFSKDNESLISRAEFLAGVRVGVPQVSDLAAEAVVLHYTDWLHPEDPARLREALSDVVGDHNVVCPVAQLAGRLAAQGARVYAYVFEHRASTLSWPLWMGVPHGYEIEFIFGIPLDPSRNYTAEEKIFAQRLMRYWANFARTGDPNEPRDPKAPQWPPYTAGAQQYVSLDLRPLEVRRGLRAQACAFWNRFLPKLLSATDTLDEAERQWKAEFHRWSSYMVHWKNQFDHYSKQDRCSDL

Chain of Cholinesterase (P06276 whole entry): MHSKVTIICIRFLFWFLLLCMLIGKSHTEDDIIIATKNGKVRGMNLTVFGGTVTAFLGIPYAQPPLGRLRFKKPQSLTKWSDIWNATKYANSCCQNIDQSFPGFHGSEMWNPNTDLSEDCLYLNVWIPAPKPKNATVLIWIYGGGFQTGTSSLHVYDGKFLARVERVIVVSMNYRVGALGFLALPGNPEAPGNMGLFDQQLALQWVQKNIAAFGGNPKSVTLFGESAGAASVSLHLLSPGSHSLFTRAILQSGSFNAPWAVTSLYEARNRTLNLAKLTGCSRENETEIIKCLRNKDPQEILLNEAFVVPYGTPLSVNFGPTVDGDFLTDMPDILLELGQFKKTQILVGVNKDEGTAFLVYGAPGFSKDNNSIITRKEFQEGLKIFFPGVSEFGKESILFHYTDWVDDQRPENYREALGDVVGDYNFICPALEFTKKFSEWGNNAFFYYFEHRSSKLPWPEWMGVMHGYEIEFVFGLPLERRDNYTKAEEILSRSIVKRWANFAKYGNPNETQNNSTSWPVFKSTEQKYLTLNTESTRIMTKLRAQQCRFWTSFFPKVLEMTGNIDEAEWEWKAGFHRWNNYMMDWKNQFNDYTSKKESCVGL

| SMILES | IC50 [1] [nM] | IC50 [2] [nM] |
| --- | --- | --- |
| CNC(=O)Oc1cccc2c1SCC1CCN(C)C21 (centres undefined) | 10.5 | 8.11 |
| CC(NC(=O)Oc1cccc2c1OCC1CCN(C)C21)c1ccccc1 (centres undefined) | 209 |  |
| CCNC(=O)Oc1cccc2c1CCC1CCN(C)C21 (centres undefined) | 30.3 | 393 |
| CCCCCCCNC(=O)Oc1cccc2c1OCC1CCN(C)C21 (centres undefined) | 1.26 | 20.3 |
| CNC(=O)Oc1cccc2c1CCC1CCN(C)C21 (centres undefined) | 24.5 | 17.3 |
| CNC(=O)Oc1cccc2c1OCC1CCN(C)C21 (centres undefined) | 59.4 | 30 |
| CNC(=O)Oc1cccc(C(C)N(C)C)c1 (centres undefined) | 406 |  |
| CCNC(=O)Oc1cccc2c1OCC1CCN(C)C21 (centres undefined) | 44.4 | 420 |

Reference: ChEMBL document CHEMBL1137822 (J Med Chem, 2004)
